In brackets after ≈: the same amount, converted by molar mass. Several values for one entry are separate records, joined by “and”; a condition that tells them apart may be missing. Equal values may be shown once. Read-outs that look alike come from different tables or passages of the source.
Key:
[1] = tested on: K. pneumoniae ATCC 29665; experiment: MIC by broth microdilution; assay type: cell-based, Klebsiella pneumoniae; conditions: Klebsiella pneumoniae, ATCC29665, read-out: MIC K. pneumoniae ATCC 29665
Procedure, shortened: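 Exponential-phase cultures (OD600 0.5, 37 °C aerobic), diluted 100-fold in CAMHB, were added to twofold compound dilution series. Keio strains grown with 50 µg ml^−1 kanamycin. Plates incubated overnight at 37 °C, shaking at 600 r.p.m.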

[2] = tested on: E. coli W3110 gyrA S97L, S83L, D87N; experiment: MIC against CRISPR/Cas9 gyrA point mutants; assay type: cell-based, Escherichia coli; conditions: for MIC: Escherichia coli
Description: MIC was determined by broth microdilution. Single-colony cultures were grown to exponential phase (OD600 of 0.5) aerobically at 37 °C. In case of strains from the Keio collection, 50 µg ml^−1 kanamycin was supplemented to the media to ascertain a homogeneous population. The bacterial suspensions were diluted 100-fold in CAMHB and 50 µl was added to a twofold serial dilution series of test compounds (50 µl per well) in polypropylene 96-well microtitre plates to reach a volume of 100 µl. The plates were sealed with breathable membranes and incubated overnight at 37 °C with constant shaking (600 r.p.m.). The MIC was determined as the lowest concentration at which no visible bacterial growth was observed as compared with the inoculum controls from the median of a minimum of triplicates.
Mutants of the DNA gyrase subunit A encoding gene (gyrA) were constructed following the protocol for gene editing via the CRISPR–Cas9 system. Strains and plasmids used are listed in Supplementary Table 15, and primers used can be found in Supplementary Table 16. The following mutations were created: S97L in E. coli W3110. Two common mutations in the gyrA gene that give resistance to fluoroquinolone antibiotics were created in E. coli W3110, namely S83L and D87N. To create the gyrA (S97L) mutants, the construct psgRNA-gyrA-M5 was assembled as follows: The 20-nt spacer sequence was introduced by PCR on pTargetF using primers gyrA_P11 and gyrA_P12, the homology-directed repair (HDR) arms were amplified from E. coli W3110 genomic DNA by PCR using primer pairs gyrA_P05 and gyrA_P013, and gyrA_P08 and gyrA_P14. The three PCR fragments generated were cloned into the SpeI and BglII digested pTargetF via Gibson assembly. To avoid off-target effects of CRISPR, besides desired point mutation for gyrA (S97L), four other silent point mutations were also included in the HDR template. Consequently, the amino acid sequence of gyrA will remain the same in the generated mutant except for the desired mutation. Similarly, constructs psgRNA-gyrA-S83L and psgRNA-gyrA-D87N were created to introduce mutations S83L and D87N in gyrA, respectively. In psgRNA-gyrA-S83L, spacer sequence was introduced using primers gyrA_P12 and gyrA_P17, HDR template was amplified using primer pairs gyrA_P05 and gyrA_P18, and gyrA_P08 and gyrA_P19. In psgRNA-gyrA-D87N, spacer sequence was introduced using primers gyrA_P12 and gyrA_P20, HDR template was amplified using primer pairs gyrA_P05 and gyrA_P21, and gyrA_P08 and gyrA_P22. The verified constructs for gyrA engineering were transformed into E. coli W3110 carrying pCas9, and plated in LB containing kanamycin (50 µg ml^−1) for the selection of the pCas9 plasmid and spectinomycin (100 µg ml^−1) for the selection of psgRNA-gyrA-X. The plates were incubated at 30 °C. Plasmids were cured by growing the strains with 0.5 mM isopropylthiogalactoside with no antibiotics to lose first the psgRNA-gyrA plasmids. After losing the spectinomycin resistance, the strain was grown in LB with no antibiotics at 42 °C to lose the pCas plasmid. Colony PCR was performed on plasmid-free colonies using primers gyrA_P9 and gyrA_P10, and PCR products were sequenced to confirm the desired mutation

[3] = tested on: E. coli BW25113 and single-gene knockouts; experiment: MIC on E. coli strains of the Keio collection; assay type: cell-based, Escherichia coli; conditions: for MIC: Escherichia coli
Procedure, shortened: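 Broth microdilution in CAMHB with twofold compound series; exponential-phase cultures (OD600 0.5) diluted 100-fold as inoculum, Keio strains pre-grown with 50 µg ml^−1 kanamycin. Overnight incubation at 37 °C, shaking 600 r.p.m. MIC is lowest concentration without visible growth, median of at least triplicates.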

[4] = tested on: E. coli; experiment: Checkerboard assay LEI-800 with CIP; assay type: cell-based, Escherichia coli;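 further: bacterial growth read as OD600 after 20 h at 37 °C with shaking, each drug pair tested in triplicate wells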
[5] = Ciprofloxacin 0 nM + LEI-800 0.1 µM
[6] = Ciprofloxacin 0 nM + LEI-800 0.2 µM
[7] = Ciprofloxacin 0 nM + LEI-800 0.4 µM
[8] = Ciprofloxacin 0 nM + LEI-800 0.8 µM
[9] = Ciprofloxacin 0 nM + LEI-800 3.1 µM
[10] = Ciprofloxacin 0 nM + LEI-800 6.2 µM

SMILES: O=S(=O)(NC[C@@H]1CC[C@H](c2ccc(-c3cccnc3)cc2)N1)c1cccc2cnccc12 [LEI-800]
- MIC [1]: 6.25 µM (≈ 2.78 µg/mL)
- susceptibility of gyrA S83L / D87N mutants [2]: did not affect the susceptibility
- susceptibility of gyrA S97L mutant ([2]; CRISPR–Cas9 S97L): resistant
- MIC ([2]; E. coli W3110 gyrA D87N (FQ-resistant 2)): 6.25 µM (≈ 2.78 µg/mL)
- MIC ([2]; E. coli W3110 gyrA S83L (FQ-resistant 1)): 6.25 µM (≈ 2.78 µg/mL)
- MIC ([2]; E. coli W3110 gyrA S97L (LEI-800-resistant)): > 50 µM
- potency against ΔtolC efflux pump mutant [3]: No increase in potency
- MIC ([3]; BW25113, JW3594 ΔrfaD): 0.4 µM (≈ 0.178 µg/mL)
- MIC ([3]; BW25113, JW3596 ΔrfaC, LPS disruption (genetic)): 0.4 µM (≈ 0.178 µg/mL)
- MIC ([3]; BW25113, JW3600 ΔrfaY): 1.6 µM (≈ 0.711 µg/mL)
- MIC ([3]; BW25113, JW3602 ΔrfaI): 1.6 µM (≈ 0.711 µg/mL)
- MIC ([3]; BW25113, JW3605 ΔrfaP): 0.4 µM (≈ 0.178 µg/mL)
- MIC ([3]; BW25113, JW5503 ΔTolC): 3.1 µM (≈ 1.38 µg/mL)
- MIC ([3]; BW25113, read-out: MIC E. coli BW25113, parent strain): 3.1 µM (≈ 1.38 µg/mL)
- checkerboard plate reading, Average values [4, 5]: 0.7858
- checkerboard plate reading, replicate wells [4, 5]: 0.7683 and 0.7669 and 0.8222
- checkerboard plate reading, Average values [4, 6]: 0.7715
- checkerboard plate reading, replicate wells [4, 6]: 0.7509 and 0.7706 and 0.7931
- checkerboard plate reading, Average values [4, 7]: 0.7601
- checkerboard plate reading, replicate wells [4, 7]: 0.7802 and 0.7598 and 0.7404
- checkerboard plate reading, Average values [4, 8]: 0.5878
- checkerboard plate reading, replicate wells [4, 8]: 0.6002 and 0.5903 and 0.5728
- checkerboard plate reading, Average values [4, 9]: 0.291
- checkerboard plate reading, replicate wells [4, 9]: 0.2991 and 0.2865 and 0.2872
- checkerboard plate reading, Average values [4, 10]: 0.1602
- checkerboard plate reading, replicate wells [4, 10]: 0.157 and 0.1619 and 0.1616
- checkerboard plate reading, Average values ([4]; Ciprofloxacin 0 nM + LEI-800 […]): 0.4748

Source: PMC11374673, “Discovery of isoquinoline sulfonamides as allosteric gyrase inhibitors with activity against fluoroquinolone-resistant bacteria” (Nature Chemistry, 2024)
